Reference: patent publication US20220143061A1, “3'3'-CYCLIC DINUCLEOTIDES AND PRODRUGS THEREOF” (INSTITUTE OF ORGANIC CHEMISTRY AND BIOCHEMISTRY ASCR, V.V.I., priority 2019, published 2022)
Read-outs that look alike come from different tables or passages of the source.

What was measured:
WT STING = biological target: T1, WT STING (Homo sapiens, UniProt Q86WV6, H232R); test: Differential Scanning Fluorimetry with WT STING; assay type: binding; details: thermal shift vs apoprotein; 150 μM CDN; truncated WT STING 0.1 mg/ml
T1 construct: 8xHis (N, cleaved yes); SUMO (N, cleaved yes); made in house
Experimental: (§1) Purified PCR products were cleaved with restriction enzymes BamHI (cat. #R0136S, NEB, Ipswich, USA) and NotI (cat. #R0189S, NEB, Ipswich, USA) and cloned into the pSUMO vector linearized with the identical enzymes.
(§2) DNase I (cat. #D5025, Sigma Aldrich, Czech Republic) and RNase A (cat. #R6513, Sigma Aldrich, Czech Republic) were added (final concentration 50 μg/ml) together with MgCl2 (final concentration 5 mmol·l^−1) to the homogenate and bacteria were lysed using French Press G-M™ High-Pressure Cell Press Homogenizer (1500 psi, 3 cycles). […] The resin was poured into a chromatography column, washed with 50 ml buffer A (50 mmol·l^−1 TrisCl (pH 8.0), 800 mmol·l^−1 NaCl, 3 mmol·l^−1 β-mercaptoethanol; 10% glycerol; 20 mmol·l^−1 imidazole) and 8-His-SUMO tagged STING proteins were eluted with 15 ml buffer A containing 300 mmol·l^−1 imidazole. […] Proteins were concentrated with Amicon® Ultra-15 10 K device (cat. #UFC901008, Merck Millipore, Billerica, USA) and flash frozen in liquid N2.
(§3) 20 μL solutions of the reaction mixtures were pipetted in triplicates into 96 well optical reaction plates and thermal denaturation of samples were performed on real time PCR cycler (LightCycler® 480 Instrument II—Roche, Basel, Switzerland). The first derivative of the thermal denaturation curves was performed to calculate denaturing temperatures of STING-CDN complexes and STING apoproteins. The thermal shift for each CDN was calculated by subtracting the average denaturing temperature of STING apoprotein from the average denaturing temperature of STING CDN complex.

AQ STING (G230A-R293Q) = biological target: T2, AQ STING (G230A-R293Q) (Homo sapiens, UniProt Q86WV6, G230A/H232R/R293Q); test: Differential Scanning Fluorimetry with AQ STING; assay type: binding; details: thermal shift vs apoprotein; 150 μM CDN; truncated AQ STING 0.1 mg/ml
T2 construct: 8xHis (N, cleaved yes); SUMO (N, cleaved yes); made in house
Experimental: as §1, §2, §3

[1] = biological target: T3, human wild type STING (WT STING) (Homo sapiens, UniProt Q86WV6, H232R); test: Digitonin assay using 293T wtSTING-FL reporter cells; assay type: cell-based; details: 293T wtSTING-FL cells, digitonin buffer 30 minutes, then 5 hours; ISRE firefly luciferase
T3 construct: host or cells: 293T cells (ATCC CRL-3216), stably double transfected with pUNO1-hSTING-WT and pGL64.27-4×ISRE
From the text: (§4) Two complementary oligonucleotides of the sequence […] […] […] […] […] The oligonucleotides were mixed in equal molar amounts, hybridized, and cleaved by restriction endonucleases HindIII (cat. #. R0104S, NEB, Ipswich, USA) and BglII (cat. #R0144S, NEB, Ipswich, USA). Ultimately, they were ligated into plasmid pGL4.27 (cat. #E6651, Promega, Madison, USA) linearized with the same enzymes. As result the sequence with four ISRE sites was placed upstream of the minimum promoter of firefly luciferase reporter gene.
(§5) After 5 minutes incubation at room temperature (RT), 250 μL of the mixture was added dropwise to the cells in one well. Cells were incubated 36 hours at 37° C. with 5% CO2, and then detached with 0.05% Trypsin and 0.22 g/L EDTA (both cat. #L0941, Biowest, Riverside, USA).
(§6) Transfected cells were seeded onto poly-D-lysine coated six well plates at density 50,000 cells per 1 cm^2 in DMEM medium with high glucose containing 10% heat inactivated FBS, 30 μg/mL blasticidin (cat. #ant-b1-05, InvivoGen, San Diego, USA), 0.06 mg/ml Penicillin G and 0.1 mg/ml Streptomycin Sulfate (both cat. #. L0018, Biowest, Riverside, USA). The medium was replenished every 3-4 days until visible colonies of cells resistant to blasticidin were formed.
(§7) Blasticidin resistant cells stably expressing WT STING were further transfected with pGL64.27-4×ISRE plasmid following the same procedure as described above. […] Homogeneous culture of stably double transfected cells was prepared by limiting dilution of cells in 96 well plates and wells with cells were selected that originated from a single cell.
The medium was removed next day and three fold serial dilutions of compounds in Digitonin buffer containing 50 mmol·l^−1 HEPES (cat. #H3375, Sigma Aldrich, Czech Republic) pH 7.0, 100 mmol·l^−1 KCl, 3 mmol·l^−1 MgCl2, 0.1 mmol·l^−1 DTT (cat. #D0632, Sigma Aldrich, Czech Republic), 85 mmol·l^−1 Sucrose (cat. #S7903, Sigma Aldrich, Czech Republic), 0.2% BSA (cat. #A2153, Sigma Aldrich, Czech Republic), 1 mmol·l^−1 ATP (cat. #A1852, Sigma Aldrich, Czech Republic), 0.1 mmol·l^−1 GTP (cat. #G8877, Sigma Aldrich, Czech Republic), and 10 μg/mL Digitonin A (cat. #D141, Sigma Aldrich, Czech Republic) were added to the cells. The buffer was removed after 30 minutes incubation at 37° C. with 5% C02, the cells were washed once with 100 μl of cultivation medium, and 100 μl of medium was added to each well. The plates with cells were incubated for 5 hours at 37° C. with 5% CO2, 50 μl of the medium was removed and 30 μl of ONE-Glo™ Luciferase Assay System reagent (cat. #E6120, Promega, Madison, USA) was added to each well. Luminesce was read on Synergy H1 (Biotek, Winooski, USA).

[2] = biological target: T3, human wild type STING (WT STING); test: 293T WT STING standard reporter assay; assay type: cell-based; details: no digitonin, 7 hours, ISRE firefly luciferase
From the text: as §4, §5, §6, §7
The medium was removed the next day and three-fold serial dilutions of compounds in 100 μl medium were added to the cells. The plates were incubated for 7 hours at 37° C. with 5% CO2. Next 50 μl of the medium was removed from wells, and 30 μl of ONE-Glo™ Luciferase Assay System reagent (cat. #E6120, Promega, Madison, USA) was added to each well. Luminescence was read on Synergy H1 (Biotek, Winooski, USA).

[3] = system: peripheral blood mononuclear cell (PBMC); test: Peripheral blood mononuclear cell assay (cytokine levels); assay type: cell-based
Experimental: Selected compounds were tested in an in vitro peripheral blood mononuclear cell (PBMC) assay. […] Serially diluted tested compounds were added to wells in 50 μl of cultivation medium and cell were incubated with compounds for 1 h at 37° C. with 5% CO2. Plates with cells were then spun 500 g for 5 minutes and medium was removed. Cells were washed twice with the cell culture medium by the use of centrifugation and gently resuspended in 100 μl medium without compounds. After 15 hour incubation at 37° C. with 5% CO2, the cell culture medium was collected and the levels of interferon-alpha (INF-α), interferon-gamma (INF-γ) and tumor necrosis factor-alpha (TNF-α) were determined with ProcartaPlex Assays (ThermoFisher, Waltham, USA) and MAGPIX System (Merck KGaA, Darmstadt, Germany). […] Values reported are an average of runs from one to four donors.

[4] = 293T wtSTING-FL cells, read-out: 293T WT STING EC50
[5] = 1 h with compound, wash, 15 hour incubation, average of one to four donors, read-out: PBMC EC50 IFN-α
[6] = 1 h with compound, wash, 15 hour incubation, average of one to four donors, read-out: PBMC EC50 IFN-γ
[7] = 1 h with compound, wash, 15 hour incubation, average of one to four donors, read-out: PBMC EC50 TNF-α
[8] = 293T WT STING EC50, 293T wtSTING-FL cells
[9] = read-out: PBMC EC50 IFN-α, 1 h with compound, wash, 15 hour incubation, average of one to four donors
[10] = read-out: PBMC EC50 IFN-γ, 1 h with compound, wash, 15 hour incubation, average of one to four donors

T3 sequence (Q86WV6 whole entry H232R): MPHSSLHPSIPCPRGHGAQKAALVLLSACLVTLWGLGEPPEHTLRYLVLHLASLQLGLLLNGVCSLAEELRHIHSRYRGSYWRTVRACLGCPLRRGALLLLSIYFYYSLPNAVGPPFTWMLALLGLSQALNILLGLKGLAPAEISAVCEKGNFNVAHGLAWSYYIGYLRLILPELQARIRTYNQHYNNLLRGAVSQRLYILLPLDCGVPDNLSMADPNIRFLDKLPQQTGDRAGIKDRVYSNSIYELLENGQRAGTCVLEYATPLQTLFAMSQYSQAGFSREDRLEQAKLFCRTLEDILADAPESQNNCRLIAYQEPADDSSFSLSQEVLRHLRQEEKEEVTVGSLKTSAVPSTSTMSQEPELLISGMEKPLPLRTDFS
T2 sequence (Q86WV6 140-343 G230A/H232R/R293Q): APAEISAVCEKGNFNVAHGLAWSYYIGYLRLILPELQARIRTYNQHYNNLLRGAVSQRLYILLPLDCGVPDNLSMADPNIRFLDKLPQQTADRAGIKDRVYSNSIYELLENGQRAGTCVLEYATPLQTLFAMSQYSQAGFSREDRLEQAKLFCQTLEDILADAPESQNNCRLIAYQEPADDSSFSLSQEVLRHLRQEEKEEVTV
T1 sequence (Q86WV6 140-343 H232R): as the sequence (Q86WV6 140-343 G230A/H232R/R293Q) above, with A91G, Q154R counted along it

SMILES | EC50 [2, 4] | EC50 [3, 5] | EC50 [3, 6] | EC50 [3, 7] | also measured
Nc1ncnc2c1ncn2[C@@H]1O[C@@H]2COP(=O)(S)O[C@H]3[C@@H](F)[C@H](n4cnc5c(N)ncnc54)O[C@@H]3COP(=O)(S)CO[C@H]2[C@H]1F (single isomer, unassigned) [Compound 14a] | 15000 nM |  |  |  | DSF ΔTm WT STING (WT STING): 8.3 °C; DSF ΔTm AQ STING (AQ STING (G230A-R293Q)): 16.1 °C; EC50 [1]: 60 nM
CCCCCCCCCCCC(=O)OCSP1(=O)CO[C@H]2[C@@H](F)[C@H](n3cnc4c(N)ncnc43)O[C@@H]2COP(=O)(SCOC(=O)CCCCCCCCCCC)O[C@H]2[C@@H](F)[C@H](n3cnc4c(N)ncnc43)O[C@@H]2CO1 (single isomer, unassigned) [Compound 43b] |  |  |  |  | EC50 [2, 8]: 30 nM; EC50 [3, 9]: 400 nM; EC50 [3, 10]: 300 nM; EC50 ([3]; read-out: PBMC EC50 TNF-α, PBMC, 1 h with compound, wash, 15 hour incubation, average of one to four donors): 200 nM
CCCCCCCCCCCC(=O)OCSP1(=O)CO[C@H]2[C@@H](F)[C@H](n3cnc4c(N)ncnc43)O[C@@H]2COP(=O)(SCOC(=O)CCCCCCCCCCC)O[C@H]2[C@@H](F)[C@H](n3cnc4c(N)ncnc43)O[C@@H]2CO1 (single isomer, unassigned) [Compound 43c] |  |  |  |  | EC50 [2, 8]: 60 nM; EC50 [3, 9]: 900 nM; EC50 [3, 10]: 100 nM; EC50 ([3]; read-out: PBMC EC50 TNF-α, 1 h with compound, wash, 15 hour incubation, average of one to four donors): 300 nM
CC1(C(=O)OCOP2(=O)CO[C@H]3[C@@H](F)[C@H](n4cnc5c(N)ncnc54)O[C@@H]3COP(=O)(OCOC(=O)C3(C)CCCCC3)O[C@H]3[C@@H](F)[C@H](n4cnc5c(N)ncnc54)O[C@@H]3CO2)CCCCC1 (single isomer, unassigned) [Compound 45a] | 60 nM | 1000 nM | 8000 nM | 500 nM | 
CC1(C(=O)OCOP2(=O)CO[C@H]3[C@@H](F)[C@H](n4cnc5c(N)ncnc54)O[C@@H]3COP(=O)(OCOC(=O)C3(C)CCCCC3)O[C@H]3[C@@H](F)[C@H](n4cnc5c(N)ncnc54)O[C@@H]3CO2)CCCCC1 (single isomer, unassigned) [Compound 45c] | 70 nM | 300 nM | 200 nM | 400 nM | 
Nc1nc2c(ncn2[C@@H]2O[C@@H]3COP(=O)(O)O[C@@H]4[C@H](O)[C@@H](COP(=O)(O)O[C@@H]2[C@@H]3O)O[C@H]4n2cnc3c(N)ncnc32)c(=O)[nH]1 [2′2′-cGAMP, reference compound] | 10200 nM |  |  |  | DSF ΔTm AQ STING (AQ STING (G230A-R293Q)): 19.4 °C; EC50 [1]: 30 nM
Nc1ncnc2c1ncn2[C@@H]1O[C@@H]2COP(=O)(O)O[C@H]3[C@@H](O)[C@H](n4cnc5c(N)ncnc54)O[C@@H]3COP(=O)(O)O[C@H]2[C@H]1O [3′3′-c-di-AMP, reference compound] | 202000 nM |  |  |  | DSF ΔTm WT STING (WT STING): 2.5 °C; DSF ΔTm AQ STING (AQ STING (G230A-R293Q)): 9.0 °C; EC50 [1]: 300 nM

The next lines start with results.

EC50 [2, 4] | SMILES | EC50 [3, 5] | EC50 [3, 6] | EC50 [3, 7] | also measured
50 nM | CC(C)OC(=O)OCOP1(=O)CO[C@H]2[C@@H](F)[C@H](n3cnc4c(N)ncnc43)O[C@@H]2COP(=O)(OCOC(=O)OC(C)C)O[C@H]2[C@@H](F)[C@H](n3cnc4c(N)ncnc43)O[C@@H]2CO1 (single isomer, unassigned) [Compound 42c] | 600 nM | 300 nM | 600 nM | 
10 nM | CCC(C)(C)C(=O)OCOP1(=O)CO[C@H]2[C@@H](F)[C@H](n3cnc4c(N)ncnc43)O[C@@H]2COP(=O)(OCOC(=O)C(C)(C)CC)O[C@H]2[C@@H](F)[C@H](n3cnc4c(N)ncnc43)O[C@@H]2CO1 (single isomer, unassigned) [Compound 44a] | 1000 nM | 500 nM | 600 nM | 
6 nM | CCC(C)(C)C(=O)OCOP1(=O)CO[C@H]2[C@@H](F)[C@H](n3cnc4c(N)ncnc43)O[C@@H]2COP(=O)(OCOC(=O)C(C)(C)CC)O[C@H]2[C@@H](F)[C@H](n3cnc4c(N)ncnc43)O[C@@H]2CO1 (single isomer, unassigned) [Compound 44c] | 100 nM | 1700 nM | 1000 nM | 
5 nM | CCCCCCCC(=O)OCOP1(=O)CO[C@H]2[C@@H](F)[C@H](n3cnc4c(N)ncnc43)O[C@@H]2COP(=O)(OCOC(=O)CCCCCCC)O[C@H]2[C@@H](F)[C@H](n3cnc4c(N)ncnc43)O[C@@H]2CO1 (single isomer, unassigned) [Compound 46a] | 3 nM |  | 1 nM | 
1 nM | CCCCCCCC(=O)OCOP1(=O)CO[C@H]2[C@@H](F)[C@H](n3cnc4c(N)ncnc43)O[C@@H]2COP(=O)(OCOC(=O)CCCCCCC)O[C@H]2[C@@H](F)[C@H](n3cnc4c(N)ncnc43)O[C@@H]2CO1 (single isomer, unassigned) [Compound 46c] | 20 nM |  | 10 nM | 
